The text below walks through data of ChEMBL document CHEMBL1909046, “DrugMatrix in vitro pharmacology data”.

Assay [1] concerns the target Mitogen-activated protein kinase 14 (Homo sapiens, UniProt Q16539). On the set-up: species or system Escherichia coli.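 Also: inhibition of p38alpha enzyme activity in a biochemical kinase assay, with myelin basic protein serving as substrate; in other assays of this panel Not Active means under 50% inhibition at 10 µM.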
Assay [2] can be described thus: DRUGMATRIX: Glutamate, AMPA radioligand binding (ligand: [3H] AMPA). The class given is cell membranes, Rattus norvegicus, Wistar, Cerebral cortex, Membrane. The note with it: Not Active = under 50% inhibition at 10 µM.
For assay [3], the target named is Cannabinoid receptor 1 (Homo sapiens, UniProt P21554). The class given is cell membranes, Membrane. The note with it: chem-1. Also: in other assays of this panel Not Active means under 50% inhibition at 10 µM.
The nature of assay [4]: DRUGMATRIX: Calcium Channel Type L, Phenylalkylamine radioligand binding (ligand: [3H] (-)-Desmethoxyverapamil (D-888)). The note with it: Not Active = under 50% inhibition at 10 µM. The class given is cell membranes, Rattus norvegicus, Wistar, Brain, Membrane.
The nature of assay [5]: DRUGMATRIX: Calcium Channel Type L, Benzothiazepine radioligand binding (ligand: [3H] Diltiazem). The class given is cell membranes, Rattus norvegicus, Wistar, Brain, Membrane. The conditions noted are these: Not Active = under 50% inhibition at 10 µM.
For assay [6], the target named is T1, Adenosine receptor A3 (Homo sapiens, UniProt P0DMS8).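 Also: radioligand binding assay with AB-MECA serving as the labeled ligand; in other assays of this panel Not Active means under 50% inhibition at 10 µM.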
T1 sequence (P0DMS8 whole entry): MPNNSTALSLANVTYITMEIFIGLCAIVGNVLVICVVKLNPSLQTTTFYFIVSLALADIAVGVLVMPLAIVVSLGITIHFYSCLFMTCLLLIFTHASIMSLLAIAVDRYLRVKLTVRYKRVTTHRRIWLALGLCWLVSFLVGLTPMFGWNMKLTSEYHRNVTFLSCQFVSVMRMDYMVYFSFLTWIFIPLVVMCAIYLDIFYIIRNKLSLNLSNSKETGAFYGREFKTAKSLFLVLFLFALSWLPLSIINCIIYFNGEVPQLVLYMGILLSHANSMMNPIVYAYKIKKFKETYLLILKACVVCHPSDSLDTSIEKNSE
Type of assay: cell membranes, CHO-K1, Membrane. The conditions noted are these: for Ki: read-out: Ki.

Sequence of Cannabinoid receptor 1 (P21554 whole entry): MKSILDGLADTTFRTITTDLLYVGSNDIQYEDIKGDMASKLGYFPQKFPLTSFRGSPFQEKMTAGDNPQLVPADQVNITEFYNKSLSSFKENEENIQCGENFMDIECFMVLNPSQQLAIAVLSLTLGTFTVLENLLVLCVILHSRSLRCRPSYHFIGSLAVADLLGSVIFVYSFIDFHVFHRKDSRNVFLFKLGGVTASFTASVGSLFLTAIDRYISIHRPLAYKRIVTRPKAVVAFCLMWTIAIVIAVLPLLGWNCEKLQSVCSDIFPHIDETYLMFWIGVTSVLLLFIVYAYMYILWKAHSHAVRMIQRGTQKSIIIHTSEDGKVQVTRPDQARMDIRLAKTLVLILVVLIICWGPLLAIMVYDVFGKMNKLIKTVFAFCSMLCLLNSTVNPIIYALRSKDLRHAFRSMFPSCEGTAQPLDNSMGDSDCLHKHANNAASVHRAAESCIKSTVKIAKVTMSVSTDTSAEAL
Sequence of Mitogen-activated protein kinase 14 (Q16539 whole entry): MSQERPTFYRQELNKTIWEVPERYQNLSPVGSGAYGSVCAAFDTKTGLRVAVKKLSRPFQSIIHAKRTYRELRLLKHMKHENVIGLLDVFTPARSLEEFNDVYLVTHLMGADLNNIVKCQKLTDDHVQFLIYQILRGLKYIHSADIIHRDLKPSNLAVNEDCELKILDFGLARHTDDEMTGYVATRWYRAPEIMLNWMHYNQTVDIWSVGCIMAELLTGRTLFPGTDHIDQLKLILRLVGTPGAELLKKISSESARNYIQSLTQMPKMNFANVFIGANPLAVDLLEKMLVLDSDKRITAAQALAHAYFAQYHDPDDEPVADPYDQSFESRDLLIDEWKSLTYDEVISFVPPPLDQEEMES

What is called IC50 is the midpoint of a concentration-inhibition curve. For orientation: Ki means the equilibrium dissociation constant of an inhibitor or competing ligand from its target. Take `CCn1cc(C(=O)O)c(=O)c2cc(F)c(N3CCNCC3)nc21` [ENOXACIN]: the half-inhibitory concentration (IC50) result in assay [1], in assay [2], in assay [3], in assay [4], in assay [5] and in assay [6] (cho-k1) was “Not Active” throughout. The Ki entry in assay [2], in assay [4] and in assay [5] was “Not Active” throughout.
`CCC(=O)O[C@H]1[C@H](O[C@@H]2[C@@H](C)[C@H](O[C@H]3C[C@@](C)(OC)[C@@H](O)[C@H](C)O3)[C@@H](C)C(=O)O[C@H](CC)[C@@](C)(O)[C@H](O)[C@@H](C)C(=O)[C@H](C)C[C@@]2(C)O)O[C@H](C)C[C@@H]1N(C)C` [ERYTHROMYCIN PROPIONATE]: the IC50 result in assay [1], in assay [2], in assay [3], in assay [4], in assay [5] and in assay [6] (cho-k1) was “Not Active” in each case. Moreover, the Ki result in assay [2], in assay [4] and in assay [5] was “Not Active” each time.
Turning to `C=C(CC)C(=O)c1ccc(OCC(=O)O)c(Cl)c1Cl` [ETHACRYNIC ACID], the IC50 entry in assay [1], in assay [2], in assay [3], in assay [4], in assay [5] and in assay [6] (cho-k1) was “Not Active” throughout. Moreover, the inhibition constant Ki result in assay [2], in assay [4] and in assay [5] was “Not Active” in each case.
Regarding `C#C[C@]1(O)CC[C@H]2[C@@H]3CCc4cc(O)ccc4[C@H]3CC[C@@]21C` [ETHINYL ESTRADIOL], the IC50 result in assay [1] was “Not Active”; in assay [2], “Not Active”; in assay [3] it was “Not Active”; in assay [4] (read-out: IC50), 6.99 µM; in assay [5] (read-out: IC50) it was 15.4 µM; in assay [6] (read-out: IC50), 32.9 µM. For the same molecule, the Ki result in assay [2] was “Not Active”; in assay [4] (read-out: Ki), 6.79 µM; in assay [5] (read-out: Ki), 13.7 µM; in assay [6], 18.6 µM.
Take `OCCO` [ETHYLENE GLYCOL]: the IC50 entry in assay [1], in assay [2], in assay [3], in assay [4], in assay [5] and in assay [6] (cho-k1) was “Not Active” in each case. Moreover, the Ki result in assay [2], in assay [4] and in assay [5] was “Not Active” throughout.
Regarding `CC(=O)OCC(CCn1cnc2cnc(N)nc21)COC(C)=O` [FAMCICLOVIR], the IC50 result in assay [1], in assay [2], in assay [3], in assay [4], in assay [5] and in assay [6] (cho-k1) was “Not Active” each time. Further, the inhibition constant Ki result in assay [2], in assay [4] and in assay [5] was “Not Active” each time.
As for `O=C(O)Cc1ccc(-c2ccccc2)cc1` [FELBINAC], the IC50 entry in assay [1], in assay [2], in assay [3], in assay [4], in assay [5] and in assay [6] (cho-k1) was “Not Active” each time. Further, the inhibitory constant (Ki) result in assay [2], in assay [4] and in assay [5] was “Not Active” in each case.
In the case of `CCOC(=O)C1=C(C)NC(C)=C(C(=O)OC)C1c1cccc(Cl)c1Cl` (configuration not stated) [FELODIPINE], the IC50 result was “Not Active” in assay [1]; “Not Active” in assay [2]; “Not Active” in assay [3]; “Not Active” in assay [4]; 0.023 µM in assay [5] (read-out: IC50); 1.06 µM in assay [6] (read-out: IC50). In addition, the Ki result in assay [2] was “Not Active”; in assay [4], “Not Active”; in assay [5] (read-out: Ki), 0.02 µM; in assay [6], 0.597 µM.
With `CC(C(=O)O)c1ccc(-c2ccccc2)c(F)c1` (configuration not stated) [FLURBIPROFEN], the IC50 entry in assay [1], in assay [2], in assay [3], in assay [4], in assay [5] and in assay [6] (cho-k1) was “Not Active” throughout. Also, the Ki result in assay [2], in assay [4] and in assay [5] was “Not Active” throughout.
`Cc1cn[nH]c1` [FOMEPIZOLE]: the IC50 result in assay [1], in assay [2], in assay [3], in assay [4], in assay [5] and in assay [6] (cho-k1) was “Not Active” throughout. Also, the Ki entry in assay [2], in assay [4] and in assay [5] was “Not Active” throughout.
In the case of `NC[C@@H]1O[C@H](O[C@H]2[C@@H](O)[C@H](O[C@@H]3[C@@H](O)[C@H](N)C[C@H](N)[C@H]3O[C@H]3O[C@H](CN)[C@@H](O)[C@H](O)[C@H]3N)O[C@@H]2CO)[C@H](N)[C@@H](O)[C@@H]1O` [FRAMYCETIN], the IC50 result in assay [1], in assay [2], in assay [3], in assay [4], in assay [5] and in assay [6] (cho-k1) was “Not Active” throughout. Further, the inhibitory constant (Ki) entry in assay [2], in assay [4] and in assay [5] was “Not Active” each time.
Turning to `C[C@H]([C@](O)(Cn1cncn1)c1ccc(F)cc1F)S(C)(=O)=O` [GENACONAZOLE], the IC50 result in assay [1], in assay [2], in assay [3], in assay [4], in assay [5] and in assay [6] (cho-k1) was “Not Active” in each case. In addition, the Ki result in assay [2], in assay [4] and in assay [5] was “Not Active” in each case.
Consider `Cc1c(F)c(N2CCNC(C)C2)cc2c1c(=O)c(C(=O)O)cn2C1CC1` (configuration not stated) [GREPAFLOXACIN], for which the 50% inhibitory concentration (IC50) entry in assay [1], in assay [2], in assay [3], in assay [4], in assay [5] and in assay [6] (cho-k1) was “Not Active” each time. The Ki entry in assay [2], in assay [4] and in assay [5] was “Not Active” in each case.
Regarding `COc1ccccc1OCC(O)CO` (configuration not stated) [GUAIFENESIN], the IC50 result in assay [1], in assay [2], in assay [3], in assay [4], in assay [5] and in assay [6] (cho-k1) was “Not Active” each time. In addition, the inhibition constant (Ki) result in assay [2], in assay [4] and in assay [5] was “Not Active” throughout.
Regarding `N=C(N)N/N=C/c1c(Cl)cccc1Cl` [GUANABENZ], the IC50 entry in assay [1], in assay [2], in assay [3], in assay [4], in assay [5] and in assay [6] (cho-k1) was “Not Active” throughout. The inhibitory constant (Ki) entry in assay [2], in assay [4] and in assay [5] was “Not Active” throughout.
Consider `C[C@]12CCC(=O)C=C1CC[C@@H]1[C@@H]2[C@@H](O)C[C@@]2(C)[C@H]1CC[C@]2(O)C(=O)CO` [HYDROCORTISONE], for which the IC50 entry in assay [1], in assay [2], in assay [3], in assay [4], in assay [5] and in assay [6] (cho-k1) was “Not Active” in each case. Also, the inhibition constant (Ki) result in assay [2], in assay [4] and in assay [5] was “Not Active” in each case.
For the molecule `C/C=C\c1ccc(O)c(OC)c1` [ISOEUGENOL], the concentration for half-maximal inhibition (IC50) entry in assay [1], in assay [2], in assay [3], in assay [4], in assay [5] and in assay [6] (cho-k1) was “Not Active” throughout. For the same molecule, the Ki entry in assay [2], in assay [4] and in assay [5] was “Not Active” each time.
Regarding `NC[C@H]1O[C@H](O[C@H]2[C@H](O)[C@@H](O[C@H]3O[C@H](CO)[C@@H](O)[C@H](N)[C@H]3O)[C@H](N)C[C@@H]2N)[C@H](O)[C@@H](O)[C@@H]1O` [KANAMYCIN], the IC50 result in assay [1], in assay [2], in assay [3], in assay [4], in assay [5] and in assay [6] (cho-k1) was “Not Active” throughout. The Ki result in assay [2], in assay [4] and in assay [5] was “Not Active” each time.
`CC[C@H](C)C(=O)O[C@H]1C[C@@H](C)C=C2C=C[C@H](C)[C@H](CC[C@@H]3C[C@@H](O)CC(=O)O3)[C@H]21` [LOVASTATIN]: the IC50 result is “Not Active” in assay [1]; “Not Active” in assay [2]; “Not Active” in assay [3]; 6.32 µM in assay [4] (read-out: IC50); “Not Active” in assay [5]; “Not Active” in assay [6] (cho-k1). Also, the Ki result in assay [2] was “Not Active”; in assay [4] (read-out: Ki), 6.14 µM; in assay [5], “Not Active”.
In the case of `CC(C(=O)O)c1ccc(CC2CCCC2=O)cc1` (configuration not stated) [LOXOPROFEN], the IC50 entry in assay [1], in assay [2], in assay [3], in assay [4], in assay [5] and in assay [6] (cho-k1) was “Not Active” in each case. The Ki entry in assay [2], in assay [4] and in assay [5] was “Not Active” throughout.
